Data: ChEMBL document CHEMBL1140819, “Protected aminooxyprolines for expedited library synthesis: application to Tsg101-directed proline-oxime containing peptides” (Bioorg Med Chem Lett, 2008)
*1 amine or outer side, *2 acyl side, *3 side chain or, on linkers, in order; H or OH if unused. Where a SMILES comes first, the peptide text is derived from it. [ ]: non-standard residue; d: D form. The star is where a group is joined. ξ: configuration not given here. Fluorescein(5-NHCS) = O=C1OC2(c3ccc(O)cc3Oc3cc(O)ccc32)c2cc(NC(=S)*)ccc21; X18 = O=C([C@@H]1C[C@@H](O/N=C\c2ccc3c(c2)Cc2ccccc2-3)CN1[*:1])[*:2]; X19 = O=C([C@@H]1C[C@@H](O/N=C\c2ccc([N+](=O)[O-])cc2)CN1[*:1])[*:2]; X23 = O=C([C@@H]1[C@@H](O/N=C\c2ccc(OCc3ccccc3)cc2)CCN1[*:1])[*:2]; X33 = CC(/C=N\O[C@H]1C[C@@H](C(=O)[*:2])N([*:1])C1)=C\c1ccccc1; X17 = COc1ccc(/C=N\O[C@@H]2C[C@@H](C(=O)[*:2])N([*:1])C2)cc1O; X27 = N#Cc1ccc(/C=N\O[C@@H]2C[C@@H](C(=O)[*:2])N([*:1])C2)cc1; X21 = O=C([C@@H]1[C@@H](O/N=C\c2cnc3ccccc3c2)CCN1[*:1])[*:2]; X26 = O=C([C@@H]1C[C@@H](O/N=C\CCc2ccccc2)CN1[*:1])[*:2]; X24 = O=C([C@@H]1[C@@H](O/N=C\c2ccccc2)CCN1[*:1])[*:2]; X20 = O=C(O)CC/C=N\O[C@H]1CCN([*:1])[C@@H]1C(=O)[*:2]; ξPip = O=C(O)C1CCCCN1; Ava = NCCCCC(=O)O

Each molecule was assayed against T1, Tumor susceptibility gene 101 protein (Homo sapiens, UniProt Q99816) (assay: Binding affinity to Tsg101).
T1 sequence (Q99816 whole entry): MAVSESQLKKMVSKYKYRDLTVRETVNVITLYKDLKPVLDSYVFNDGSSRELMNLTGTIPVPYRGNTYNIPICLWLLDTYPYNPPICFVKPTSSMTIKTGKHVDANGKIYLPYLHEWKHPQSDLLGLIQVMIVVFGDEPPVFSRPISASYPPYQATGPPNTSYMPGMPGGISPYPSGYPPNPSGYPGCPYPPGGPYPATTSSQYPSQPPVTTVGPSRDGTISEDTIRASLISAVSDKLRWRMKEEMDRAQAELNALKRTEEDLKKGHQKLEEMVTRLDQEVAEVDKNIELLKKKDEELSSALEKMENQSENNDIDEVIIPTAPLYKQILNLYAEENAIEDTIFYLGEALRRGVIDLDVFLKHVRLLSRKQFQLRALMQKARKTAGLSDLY

| Compound | IC50 [µM] |
| --- | --- |
| C[C@H](NC(=O)[C@@H](NC(=O)[C@@H]1CCCN1C(=O)[C@H](CCC(=O)O)NC(=O)[C@@H]1CCCN1C(=O)CCCCNC(=S)Nc1ccc2c(c1)C1(OC2=O)c2ccc(O)cc2Oc2cc(O)ccc21)[C@@H](C)O)C(=O)N1CCCCC1C(=O)N1C[C@H](O/N=C\c2ccc([N+](=O)[O-])cc2)C[C@H]1C(=O)N[C@@H](CCC(=O)O)C(=O)N[C@@H](CCC(=O)O)C(N)=O (stereo not given in full) ({Fluorescein(5-NHCS)-Ava}-PEPTA[ξPip][X19]EE-NH2) | 21 |
| C[C@H](NC(=O)[C@@H](NC(=O)[C@@H]1CCCN1C(=O)[C@H](CCC(=O)O)NC(=O)[C@@H]1CCCN1C(=O)CCCCNC(=S)Nc1ccc2c(c1)C1(OC2=O)c2ccc(O)cc2Oc2cc(O)ccc21)[C@@H](C)O)C(=O)N1CCCCC1C(=O)N1CC[C@H](O/N=C\c2ccc(OCc3ccccc3)cc2)[C@H]1C(=O)N[C@@H](CCC(=O)O)C(=O)N[C@@H](CCC(=O)O)C(N)=O (stereo not given in full) ({Fluorescein(5-NHCS)-Ava}-PEPTA[ξPip][X23]EE-NH2) | 18 |
| C[C@H](NC(=O)[C@@H](NC(=O)[C@@H]1CCCN1C(=O)[C@H](CCC(=O)O)NC(=O)[C@@H]1CCCN1C(=O)CCCCNC(=S)Nc1ccc2c(c1)C1(OC2=O)c2ccc(O)cc2Oc2cc(O)ccc21)[C@@H](C)O)C(=O)N1CCCCC1C(=O)N1CC[C@H](O/N=C\c2ccccc2)[C@H]1C(=O)N[C@@H](CCC(=O)O)C(=O)N[C@@H](CCC(=O)O)C(N)=O (stereo not given in full) ({Fluorescein(5-NHCS)-Ava}-PEPTA[ξPip][X24]EE-NH2) | 15 |
| C[C@H](NC(=O)[C@@H](NC(=O)[C@@H]1CCCN1C(=O)[C@H](CCC(=O)O)NC(=O)[C@@H]1CCCN1C(=O)CCCCNC(=S)Nc1ccc2c(c1)C1(OC2=O)c2ccc(O)cc2Oc2cc(O)ccc21)[C@@H](C)O)C(=O)N1CCCCC1C(=O)N1C[C@H](O/N=C\CCc2ccccc2)C[C@H]1C(=O)N[C@@H](CCC(=O)O)C(=O)N[C@@H](CCC(=O)O)C(N)=O (stereo not given in full) ({Fluorescein(5-NHCS)-Ava}-PEPTA[ξPip][X26]EE-NH2) | 26 |
| CC(/C=N\O[C@H]1C[C@@H](C(=O)N[C@@H](CCC(=O)O)C(=O)N[C@@H](CCC(=O)O)C(N)=O)N(C(=O)C2CCCCN2C(=O)[C@H](C)NC(=O)[C@@H](NC(=O)[C@@H]2CCCN2C(=O)[C@H](CCC(=O)O)NC(=O)[C@@H]2CCCN2C(=O)CCCCNC(=S)Nc2ccc3c(c2)C2(OC3=O)c3ccc(O)cc3Oc3cc(O)ccc32)[C@@H](C)O)C1)=C\c1ccccc1 (stereo not given in full) ({Fluorescein(5-NHCS)-Ava}-PEPTA[ξPip][X33]EE-NH2) | 58 |

Further molecules by falling IC50, results first:

| IC50 [µM] | Compound |
| --- | --- |
| 27 | C[C@H](NC(=O)[C@@H](NC(=O)[C@@H]1CCCN1C(=O)[C@H](CCC(=O)O)NC(=O)[C@@H]1CCCN1C(=O)CCCCNC(=S)Nc1ccc2c(c1)C1(OC2=O)c2ccc(O)cc2Oc2cc(O)ccc21)[C@@H](C)O)C(=O)N1CCCCC1C(=O)N1C[C@H](O/N=C\c2ccc3c(c2)Cc2ccccc2-3)C[C@H]1C(=O)N[C@@H](CCC(=O)O)C(=O)N[C@@H](CCC(=O)O)C(N)=O (stereo not given in full) ({Fluorescein(5-NHCS)-Ava}-PEPTA[ξPip][X18]EE-NH2) |
| 23 | COc1ccc(/C=N\O[C@@H]2C[C@@H](C(=O)N[C@@H](CCC(=O)O)C(=O)N[C@@H](CCC(=O)O)C(N)=O)N(C(=O)C3CCCCN3C(=O)[C@H](C)NC(=O)[C@@H](NC(=O)[C@@H]3CCCN3C(=O)[C@H](CCC(=O)O)NC(=O)[C@@H]3CCCN3C(=O)CCCCNC(=S)Nc3ccc4c(c3)C3(OC4=O)c4ccc(O)cc4Oc4cc(O)ccc43)[C@@H](C)O)C2)cc1O (stereo not given in full) ({Fluorescein(5-NHCS)-Ava}-PEPTA[ξPip][X17]EE-NH2) |
| 20 | C[C@H](NC(=O)[C@@H](NC(=O)[C@@H]1CCCN1C(=O)[C@H](CCC(=O)O)NC(=O)[C@@H]1CCCN1C(=O)CCCCNC(=S)Nc1ccc2c(c1)C1(OC2=O)c2ccc(O)cc2Oc2cc(O)ccc21)[C@@H](C)O)C(=O)N1CCCCC1C(=O)N1C[C@H](O/N=C\c2ccc(C#N)cc2)C[C@H]1C(=O)N[C@@H](CCC(=O)O)C(=O)N[C@@H](CCC(=O)O)C(N)=O (stereo not given in full) ({Fluorescein(5-NHCS)-Ava}-PEPTA[ξPip][X27]EE-NH2) |
| 19 | C[C@H](NC(=O)[C@@H](NC(=O)[C@@H]1CCCN1C(=O)[C@H](CCC(=O)O)NC(=O)[C@@H]1CCCN1C(=O)CCCCNC(=S)Nc1ccc2c(c1)C1(OC2=O)c2ccc(O)cc2Oc2cc(O)ccc21)[C@@H](C)O)C(=O)N1CCCCC1C(=O)N1CC[C@H](O/N=C\c2cnc3ccccc3c2)[C@H]1C(=O)N[C@@H](CCC(=O)O)C(=O)N[C@@H](CCC(=O)O)C(N)=O (stereo not given in full) ({Fluorescein(5-NHCS)-Ava}-PEPTA[ξPip][X21]EE-NH2) |
| 16 | C[C@H](NC(=O)[C@@H](NC(=O)[C@@H]1CCCN1C(=O)[C@H](CCC(=O)O)NC(=O)[C@@H]1CCCN1C(=O)CCCCNC(=S)Nc1ccc2c(c1)C1(OC2=O)c2ccc(O)cc2Oc2cc(O)ccc21)[C@@H](C)O)C(=O)N1CCCCC1C(=O)N1CC[C@H](O/N=C\CCC(=O)O)[C@H]1C(=O)N[C@@H](CCC(=O)O)C(=O)N[C@@H](CCC(=O)O)C(N)=O (stereo not given in full) ({Fluorescein(5-NHCS)-Ava}-PEPTA[ξPip][X20]EE-NH2) |
